1 compound from patent US20230054976A1, “METHODS FOR INHIBITION OF ALPHA-SYNUCLEIN mRNA USING SMALL MOLECULES” (The Scripps Research Institute, priority 2019, published 2023) can be followed below.

By EC50 is commonly meant the concentration that produces a half-maximal response. One may read the Kd as the constant that tells how readily two partners part at equilibrium.

One experiment deals with PrP 5′ UTR. The following applies: SH-SY5Y cells.
Experiment [1] deals with RNA-8 to 11 (mutated closing base pairs). The experiment can be described thus: Competitive binding assay (2-AP), RNA-8 to 11. As to the method:
(§1) EC50 was calculated from Eq. (1).

The subject of experiment [2] is 32P-labeled SNCA IRE hairpin RNA. The experiment can be described thus: RNase H-mediated ASO-Bind-Map. The format is binding, human. As to the method:
RNase H-mediated ASO-Bind-Map. SNCA IRE hairpin RNA was 5′-end labeled with [γ-^32P]ATP and T4 kinase as previously described^5. Approximately, 5 pmoles of ^32P labeled IRE RNA per reaction was folded in 1× RNase H buffer (New England Biolabs) by heating to 65° C. for 5 min and slowly cooling to room temperature. Serially diluted concentrations of Synucleozid were added to the RNA solutions and incubated at room temperature for 30 min. One of ASOs was then added to a final concentration of 500 nM, followed by incubation at room temperature for 30 min. Next, 0.05 U/μL RNase H (New England Biolabs) was added into each RNA-ligand mixture, and the samples were incubated for 20 min. Reactions were quenched by incubating at 65° C. for 20 min. T
Two ladders were generated to identify the positions of RNase H cleavage. Each guanosine (G) residue was identified by using RNase T1 under denaturing conditions as described above. Likewise, a hydrolysis ladder was generated as described above. Reactions were stopped by addition of an equal volume of 2× Loading Buffer. Fragments were separated on a denaturing 15% polyacrylamide gel and imaged using a BioRad PMI phosphorimager. Images were quantified with BioRad's QuantityOne software.

For experiment [3], the system named is 2-AP labeled SNCA IRE RNA. The experiment can be described thus: 2-AP emission assay. The format is binding, human. The note with it: decrease of 2-AP emission. As to the method: 2-AP emission assay. One μM 2-AP labeled SNCA IRE RNA was folded by heating to 65° C. for 5 min in 1× Assay Buffer and slowly cooling to room temperature. Bovine serum albumin (BSA) was then added to the RNA solution to 40 μg/mL. After adding Synucleozid to RNA solution at a final concentration […] of 100 μM, serial dilutions were prepared using 1× Assay Buffer including BSA supplemented with folded one μM 2-AP labeled SNCA IRE RNA. The solutions were incubated at room temperature for 30 min in dark and transferred into wells of black 384-well half area plates (Greiner). Fluorescence intensity was measured at room temperature with Tecan plate reader (Gain: 100, Integration time: 40 μs). Fluorescence excitation and emission wavelengths were set at 310 and 380 nm. The change of 2-AP fluorescence intensity as a function of Synucleozid concentration was fit to Eq. (1):
as §1

A further experiment deals with SNCA 5′ UTR. The experiment can be described thus: Luciferase reporter assay, SNCA 5′ UTR, SH-SY5Y cells. The format is cell-based, human. (In general: In a reporter assay the amount or activity of a reporter protein is the signal.)
The target of experiment [4] is T1, IRP-2:SNCA IRE RNA complex (Homo sapiens, UniProt P48200).
T1 construct: purchased Abnova
Put plainly: In vitro displacement of IRPs by gel mobility shift assay, IRP-2. Type of experiment: binding. The following applies: 0.2, 1, 5 μM; pre-incubation 1-60 min. As to the method:
In vitro displacement of IRPs by gel mobility shift assays. SNCA IRE hairpin RNA was 5′-end labeled with [γ-^32P]ATP as previously described^5. Approximately, 2 pmoles of ^32P labeled RNA per 20 μL reaction was folded in 1× Assay Buffer by heating at 65° C. for 5 min and slowly cooling to room temperature. As indicated, vehicle, Synucleozid (0.2, 1, 5 μM) or unlabeled IRE RNA (1 μM, folded as described above and used as a positive control) was added to the samples, and the samples were incubated at room temperature for varying amounts of time (1-60 min as indicated). Then, 0.5 μg IRP-1 or IRP-2 (Abnova) was added, and the samples were incubated at room temperature for an additional 30 min. An equal volume of 2× Native Gel Loading Buffer (2×TBE, 50% Glycerol, 0.025% (w/v) Bromophenol blue and Xylene cyanol FF) was added to each sample. Note, Native Gel Loading Buffer added to Synucleozid-treated samples was supplemented with the same concentration of Synucleozid as in the sample to maintain a constant concentration. IRP:IRE complexes and free IRE were separated on a native 15% polyacrylamide prepared 1×TBE supplemented with the same concentration of Synucleozid as in compound-treated samples, and imaged using a Bio-Rad PMI phosphorimager. Images were quantified with BioRad's Quantity One software.

Experiment [5] addresses RNA-7 (A bulge mutated to U or G bulge). The experiment can be described thus: Competitive binding assay (2-AP), RNA-7. As to the method: as §1
The test system of experiment [6] is SH-SY5Y cells transcriptome. The experiment can be described thus: RNA-Seq transcriptome-wide differential expression. Type of experiment: cell-based, human. The following applies: 48 h; Synucleozid 1.5 μM vs vehicle; siRNA 0.1 μM vs scrambled control. As to the method:
RNA-Seq. SH-SY5Y cells were treated or transfected as described above for 48 h with Synucleozid (1.5 μM) and siRNA (0.1 μM). Total RNA was extracted using a miRNeasy Mini Kit (Qiagen, as described above) with on-column DNase I treatment. Qubit 2.0 Fluorometer (Invitrogen) was used for total RNA quantification. Quality of total RNA was assessed by using an Agilent Technologies 2100 Bioanalyzer RNA nano chip. Samples which have RNA integrity number >8.0 were used in future experiments. Probes provided by the NEBNext rRNA depletion module (catalog no.: E6310L, New England Biosciences) were used to deplete rRNA on approximate 500 ng of total RNA according to the manufacturer's recommendations. Library preparation was done with NEBNext Ultra 11 Directional RNA kit (catalog no.: E7760, New England Biosciences) according to the manufacturer's instructions. RNA samples were heated to 94° C. and simultaneously chemically fragmented in a divalent cation buffer for 15 min. Conversion of fragmented RNA to the first strand of cDNA was done with random hexamer priming and reverse transcription. To synthesize second strand, RNA template was removed and dUTP in place of dTTP was incorporated. […] Every sample with a base quality score >Q30 (<1 error per 1000 bp) generated around 20-25 million reads. Transcript abundance from these RNA samples were quantified using Kallisto (12). […]

T1 sequence (P48200 whole entry, species assumed, one chain of several): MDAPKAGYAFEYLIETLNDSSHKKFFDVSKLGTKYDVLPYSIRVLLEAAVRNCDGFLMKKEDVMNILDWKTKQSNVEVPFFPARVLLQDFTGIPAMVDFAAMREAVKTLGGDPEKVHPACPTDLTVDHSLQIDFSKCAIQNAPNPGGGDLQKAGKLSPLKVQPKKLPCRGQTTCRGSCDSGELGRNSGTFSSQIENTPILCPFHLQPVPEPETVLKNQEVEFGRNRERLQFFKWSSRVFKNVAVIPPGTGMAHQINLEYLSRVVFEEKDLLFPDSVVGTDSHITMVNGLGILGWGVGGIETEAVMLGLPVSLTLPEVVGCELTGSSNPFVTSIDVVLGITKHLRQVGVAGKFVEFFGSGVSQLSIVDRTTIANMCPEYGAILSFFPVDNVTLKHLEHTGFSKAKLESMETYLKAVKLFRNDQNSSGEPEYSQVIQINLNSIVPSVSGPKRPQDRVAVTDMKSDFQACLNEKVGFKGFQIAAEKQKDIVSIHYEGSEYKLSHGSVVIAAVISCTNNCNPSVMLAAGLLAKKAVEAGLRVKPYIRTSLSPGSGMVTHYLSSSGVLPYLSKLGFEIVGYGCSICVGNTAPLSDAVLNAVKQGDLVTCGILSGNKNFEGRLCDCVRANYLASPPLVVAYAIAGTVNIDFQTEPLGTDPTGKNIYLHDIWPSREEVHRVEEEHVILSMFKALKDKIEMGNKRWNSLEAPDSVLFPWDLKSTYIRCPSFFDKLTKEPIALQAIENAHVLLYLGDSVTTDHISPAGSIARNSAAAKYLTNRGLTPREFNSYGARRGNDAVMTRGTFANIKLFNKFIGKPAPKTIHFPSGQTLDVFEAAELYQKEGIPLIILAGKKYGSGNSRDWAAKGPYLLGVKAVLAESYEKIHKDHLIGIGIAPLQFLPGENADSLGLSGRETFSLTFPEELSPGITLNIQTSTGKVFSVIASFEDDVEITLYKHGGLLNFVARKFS

In the case of `N=C(N)c1ccc(Nc2ccc(-c3cc4ccc(C(=N)N)cc4[nH]3)cc2)cc1` [Synucleozid A], the “effect on translation of luciferase fused to PrP 5′ UTR” value in the experiment on PrP 5′ UTR is listed as “no effect”. The “effect of closing base pair mutation on binding affinity” value in experiment [1] is on record as “reduced binding affinity”. For the same compound, the “protection from RNase H cleavage, ASOs hybridized with sites other than A bulge” value in experiment [2] (1 μM) is recorded as “no protection from cleavage”. For the same compound, the “protection of the IRE from RNase H cleavage” value in experiment [2] (0.1, 1, and 10 μM, ASO (1-10) and ASO (40-50) overlap with the A bulge) was “only observed with ASOs whose binding sites overlap with the A bulge”. In addition, the EC50 in experiment [3] was 2720 ± 370 nM. This compound also came in with an EC50 in experiment [3] (listed as Synucleozid) of 2700 ± 400 nM. For the same compound, the “inhibition of translation, luciferase fused to SNCA 5′ UTR” value with SNCA 5′ UTR (250 nM) is on record as ~10%. For the same compound, the “inhibition of translation, luciferase fused to SNCA 5′ UTR” value in the experiment with SNCA 5′ UTR (1 μM) is listed as ~40%. Also, in experiment [4], the “effect on binding of IRP-2 to SNCA IRE RNA” value is on record as “Neither Synucleozid concentration (0.2, 1, 5 μM) nor pre-incubation time (1, 5, 15, 60 min) has any significant effect”. In addition, in experiment [5], the Kd was ~20000 nM and the “reduction of avidity compared to the native IRE” value turned out to be 10 fold. Besides, in experiment [6], the “genes unchanged / genes detected” value is given as 19979/20034 and the “genes unchanged, percentage” value turned out to be 99.7%.
